Source: US12338220B2, “Antiviral pyrazolopiridinone compounds” (Novartis AG, priority 2019, dated 2025)
Read-outs that look alike come from different tables or passages of the source.

Key:
CMV-polymerase = CMV-polymerase (Human cytomegalovirus (strain AD169) (HHV-5) (Human herpesvirus 5), UniProt P08546); assay: biochemical
CMV = assay: microbe, parasite or virus in culture; type: cell-based; details: Human betaherpesvirus 5, 72 h, read-out: CMV-Luc Cellular EC50, NN-NHDF cells, MOI 1, 72 hrs
[1] = read-out: CMV-polymerase Biochemical IC50
[2] = CMV-polymerase Biochemical IC50

| SMILES | IC50 (CMV-polymerase; [1]) | EC50 (CMV) | IC50 (CMV-polymerase; [2]) |
| --- | --- | --- | --- |
| O=C(NCc1ccc(Cl)cc1)c1nn(CCO)c2c1CCN(CC1(S(=O)(=O)C3CC3)CC1)C2=O [Example 218, N-(4-Chlorobenzyl)-6-((1-(cyclopropylsulfonyl)cyclopropyl)methyl)-1-(2-hydroxyethyl)-7-oxo-4,5,6,7-tetrahydro-1H-pyrazolo[3,4-c]pyridine-3-carboxamide] | 6 nM | 42 nM |  |
| CS(=O)(=O)C1(CN2CCc3c(C(=O)NCc4ccc(Cl)cc4)nn(CCO)c3C2=O)CC1 [Example 219, N-(4-Chlorobenzyl)-1-(2-hydroxyethyl)-6-((1-(methylsulfonyl)cyclopropyl)methyl)-7-oxo-4,5,6,7-tetrahydro-1H-pyrazolo[3,4-c]pyridine-3-carboxamide] | 30 nM | 207 nM |  |
| CC(C)(CO)S(=O)(=O)C1(CN2CCc3c(C(=O)NCc4ccc(C#N)cc4)nn(CCO)c3C2=O)CC1 [Example 220, N-(4-Cyanobenzyl)-6-((1-((1-hydroxy-2-methylpropan-2-yl)sulfonyl)cyclopropyl)methyl)-1-(2-hydroxyethyl)-7-oxo-4,5,6,7-tetrahydro-1H-pyrazolo[3,4-c]pyridine-3-carboxamide] | 1 nM | 49 nM |  |
| CC1(S(=O)(=O)C2(CN3CCc4c(C(=O)NCc5ccc(Cl)cc5)nn(CCOCCO)c4C3=O)CC2)CC1 [Example 222, N-(4-Chlorobenzyl)-1-(2-(2-hydroxyethoxy)ethyl)-6-((1-((1-methylcyclopropyl)sulfonyl)cyclopropyl)methyl)-7-oxo-4,5,6,7-tetrahydro-1H-pyrazolo[3,4-c]pyridine-3-carboxamide] |  | 33 nM | 3 nM |
| CC1(S(=O)(=O)C2(CN3CCc4c(C(=O)NCc5ccc(Cl)cc5)nn(CCOCCN)c4C3=O)CC2)CC1 [Example 223, 1-(2-(2-Aminoethoxy)ethyl)-N-(4-chlorobenzyl)-6-((1-((1-methylcyclopropyl)sulfonyl)cyclopropyl)methyl)-7-oxo-4,5,6,7-tetrahydro-1H-pyrazolo[3,4-c]pyridine-3-carboxamide] |  | 49 nM | 5 nM |
| CCC(=O)Cn1nc(C(=O)NCc2ccc(C#N)cc2)c2c1C(=O)N(CC1(S(=O)(=O)C3CC3)CC1)CC2 [Example 227, N-(4-Cyanobenzyl)-6-((1-(cyclopropylsulfonyl)cyclopropyl)methyl)-7-oxo-1-(2-oxobutyl)-4,5,6,7-tetrahydro-1H-pyrazolo[3,4-c]pyridine-3-carboxamide] |  | 28 nM | 1 nM |
| N#Cc1ccc(CNC(=O)c2nn(CC3(O)CC3)c3c2CCN(CC2(S(=O)(=O)C4CC4)CC2)C3=O)cc1 [Example 228, N-(4-Cyanobenzyl)-6-((1-(cyclopropylsulfonyl)cyclopropyl)methyl)-1-((1-hydroxycyclopropyl)methyl)-7-oxo-4,5,6,7-tetrahydro-1H-pyrazolo[3,4-c]pyridine-3-carboxamide] |  | 51 nM | 2 nM |
| CC(C)(O)Cn1nc(C(=O)NCc2ccc(Cl)cc2)c2c1C(=O)N(CC1(S(=O)(=O)C3CC3)CC1)CC2 [Example 229, N-(4-Chlorobenzyl)-6-((1-(cyclopropylsulfonyl)cyclopropyl)methyl)-1-(2-hydroxy-2-methylpropyl)-7-oxo-4,5,6,7-tetrahydro-1H-pyrazolo[3,4-c]pyridine-3-carboxamide] |  | 20 nM | 1 nM |
| CC(C)(O)Cn1nc(C(=O)NCc2ccc(C#N)cc2)c2c1C(=O)N(CC1(S(=O)(=O)C3CC3)CC1)CC2 [Example 230, N-(4-Cyanobenzyl)-6-((1-(cyclopropylsulfonyl)cyclopropyl)methyl)-1-(2-hydroxy-2-methylpropyl)-7-oxo-4,5,6,7-tetrahydro-1H-pyrazolo[3,4-c]pyridine-3-carboxamide] | 1 nM | 31 nM |  |
